Test results: patent publication US20220279826A1, “OFF-FLAVOR SUPPRESSING AGENT” (AJINOMOTO CO., INC., priority 2019, published 2022)

Tests used:
[1] = Sensory evaluation in 1 wt % methyl cellulose aqueous solution (Experimental Example 20); details: Table 35
Procedure: Each compound shown in the following Table 35 was added to a 1 wt % methyl cellulose aqueous solution (aqueous solution prepared by dissolving methyl cellulose (1 part by weight) in water (99 parts by weight)) so as to achieve the concentration (addition concentration) shown in the following Table 35 to prepare each evaluation sample. Here, the methyl cellulose manufactured by Unitec Foods Co., Ltd. was used.
(§1) Based on the following evaluation criteria, a panel of four experts determined by consensus the intensity of off-tastes (bitter taste, harsh taste, astringent taste) derived from methyl cellulose in each evaluation sample, by comparison with a 1 wt % methyl cellulose aqueous solution without addition of any compound (negative control).

[2] = Sensory evaluation in soy protein hamburg steak (Experimental Example 17); details: Table 32
Procedure: Of the materials shown in the following Table 31, the materials of category 1 were first mixed, and the materials of category 2 were further mixed. The obtained mixture was formed into a circular shape of about 100 g per piece, and then baked at 180° C. for 2 minutes and 30 seconds for each of the front and back sides on an iron plate to produce a soy protein hamburg steak. Here, the granular soy protein manufactured by FUJI OIL CO., LTD. was used.
Each compound shown in the following Table 32 was added to soy protein hamburg steak so as to achieve the concentration (addition concentration) shown in the following Table 32 to prepare each evaluation sample.
as §1, with “five” for “four”, “soy protein” for “methyl cellulose”, “soy protein hamburg steak” for “a 1 wt % methyl cellulose aqueous solution”

[3] = Sensory evaluation of off-taste suppressing effect in 0.8 wt % potassium chloride aqueous solution (Experimental Examples 1 and 2)
Procedure: Each compound shown in the following Tables 1 to 13 was added to a 0.8 wt % potassium chloride aqueous solution at the concentration (addition concentration) shown in the following Tables 1 to 13 to prepare each evaluation sample.
(§2) Based on the following evaluation criteria, a panel of two experts determined by consensus the intensity of off-tastes (bitter taste, metallic taste, harsh taste, astringent taste) derived from potassium chloride in each evaluation sample, by reference to each potassium chloride aqueous solution adjusted to 0.8 wt %, 0.75 wt %, 0.7 wt %, or 0.65 wt %.
−: intensity of the same level as potassium chloride aqueous solution with potassium chloride concentration of not less than 0.8 wt %
+: intensity of the same level as potassium chloride aqueous solution with potassium chloride concentration of not less than 0.75 wt % and less than 0.8 wt %
++: intensity of the same level as potassium chloride aqueous solution with potassium chloride concentration of not less than 0.7 wt % and less than 0.75 wt %
+++: intensity of the same level as potassium chloride aqueous solution with potassium chloride concentration of not less than 0.65 wt % and less than 0.7 wt %
Each compound shown in the following Table 14 was added to a 0.8 wt % potassium chloride aqueous solution at the concentration (addition concentration) shown in the following Table 14 to prepare each evaluation sample.

[4] = Sensory evaluation in sodium acetate aqueous solution (Experimental Example 18); details: Table 33
Procedure: Each compound shown in the following Table 33 was added to an aqueous solution prepared by dissolving sodium acetate (1 part by weight) and acetic acid (0.3 parts by weight) in water (98.7 parts by weight) (hereinafter at times referred to as sodium acetate aqueous solution) so as to achieve the concentration (addition concentration) shown in the following Table 33 to prepare each evaluation sample.
as §1, with “sodium acetate” for “methyl cellulose”, “sodium acetate” for “1 wt % methyl cellulose”

[5] = Sensory evaluation in granular pea protein (Experimental Example 15); details: Table 29
Procedure: Each compound shown in the following Table 29 was added to granular pea protein (manufactured by Roquette) so as to achieve the concentration (addition concentration) shown in the following Table 29 to prepare each evaluation sample.
as §1, with “pea protein” for “methyl cellulose”, “granular pea protein” for “a 1 wt % methyl cellulose aqueous solution”

[6] = Sensory evaluation in Japanese noodle soup base solution with potassium chloride (0.2 g) (Experimental Example 5); details: for off-taste suppressing effect: Japanese noodle soup base solution, potassium chloride 0.2 g, addition concentration 100 weight ppb (50 weight ppm with respect to potassium chloride); for intensity of off-tastes (bitter taste, metallic taste, harsh taste, astringent taste) derived from potassium chloride: base solution of Table 19
Procedure: Potassium chloride (0.2 g) was added to a commercially available Japanese noodle soup base (manufactured by Yamaki Co., Ltd.) (11.1 g), and dissolved by adding hot water (88.7 g) to prepare a base solution.
Each compound shown in the following Table 19 was added to the base solution prepared above so as to achieve the concentration (addition concentration) shown in the following Table 19 to prepare each evaluation sample.
as §2, with “0.2” for “0.8”, “0.15” for “0.75”, “%” for “%, 0.7 wt %,”, “0.1” for “0.65”

[7] = Sensory evaluation in potage solution with potassium chloride (Experimental Example 3); details: Potage solution with 0.8 wt % potassium chloride; addition concentration 100 ppb (12.5 weight ppm with respect to potassium chloride)
Procedure: (§3) As shown in the following (1) to (3) below, 0.8 wt % of potassium chloride was added to a food base powder corresponding to 0.5 wt % of sodium chloride to prepare each base solution having an off-taste derived from potassium chloride.
Potassium chloride (0.8 g) was added to a commercially available powdered instant potage (manufactured by Ajinomoto Co., Inc., trade name “Knorr (registered trade mark) Cup Soup Potage”) (7.1 g), hot water (92.1 g) was added to dissolve the mixture to prepare a base solution (potage solution).
(§4) Each compound shown in the following Tables 15 to 17 was added to each base solution (ramen noodle soup solution, chicken broth solution, potage solution) so as to achieve the concentration (addition concentration) shown in the following Tables 15 to 17 to prepare each evaluation sample.
(§5) By a method similar to that in Experimental Example 1, a panel of two experts determined the intensity of off-tastes (bitter taste, metallic taste, harsh taste, astringent taste) derived from potassium chloride in each evaluation sample.

[8] = Sensory evaluation in ramen noodle soup solution with potassium chloride (Experimental Example 3)
Procedure: as §3
Potassium chloride (0.8 g) was added to a soup powder (1.1 g) of a commercially available instant ramen noodle (manufactured by SANYO FOODS Co., Ltd., trade name “Sapporo Ichiban Shouyuaji”), hot water (98.1 g) was added to dissolve the mixture to prepare a base solution (ramen noodle soup solution).
as §4, §5

[9] = 0.8 wt % potassium chloride aqueous solution, addition concentration 100 weight ppb (12.5 weight ppm with respect to potassium chloride)
[10] = 0.8 wt % potassium chloride aqueous solution, addition concentration 500 weight ppb (62.5 weight ppm with respect to potassium chloride)
[11] = potassium chloride aqueous solutions, Tables 1 to 14
[12] = 0.8 wt % potassium chloride aqueous solution, addition concentration 50 weight ppb (6.25 weight ppm with respect to potassium chloride)

Structure (SMILES) | intensity of off-tastes (bitter taste, harsh taste, astringent taste) derived from methyl cellulose [1] | intensity of off-tastes (bitter taste, harsh taste, astringent taste) derived from soy protein [2] | off-taste suppressing effect [3, 9] | off-taste suppressing effect [3, 10] | off-taste suppressing effect ([3]; 0.8 wt % potassium chloride aqueous solution, addition concentration 1000 weight ppb (125 weight ppm with respect to potassium chloride)) | off-taste suppressing effect ([3]; 0.8 wt % potassium chloride aqueous solution, addition concentration 2000 weight ppb (250 weight ppm with respect to potassium chloride)) | intensity of off-tastes (bitter taste, metallic taste, harsh taste, astringent taste) derived from potassium chloride [3, 11] | intensity of off-tastes (bitter taste, harsh taste, astringent taste) derived from sodium acetate [4] | intensity of off-tastes (bitter taste, harsh taste, astringent taste) derived from pea protein [5] | off-taste suppressing effect [6] | intensity of off-tastes (bitter taste, metallic taste, harsh taste, astringent taste) derived from potassium chloride [6] | off-taste suppressing effect [7] | off-taste suppressing effect [3, 12] | off-taste suppressing effect ([3]; in words, potassium chloride aqueous solutions, Tables 1 to 14) | off-taste suppressing effect ([8]; Ramen noodle soup solution with 0.8 wt % potassium chloride, addition concentration 100 ppb (12.5 weight ppm with respect to potassium chloride)) | intensity of off-tastes (bitter taste, metallic taste, harsh taste, astringent taste) derived from potassium chloride ([8]; base solutions of Tables 15 to 17 (ramen noodle soup, chicken broth, potage)) | off-taste suppressing effect ([3]; 0.8 wt % potassium chloride aqueous solution, addition concentration 10 weight ppb (1.25 weight ppm with respect to potassium chloride))
CC(=O)c1ccc(C)o1 [2-acetyl-5-methylfuran] | suppressed | suppressed | + (intensity of the same level as potassium chloride aqueous solution with potassium chloride concentration of not less than 0.75 wt % and less than 0.8 wt %) | ++ (intensity of the same level as potassium chloride aqueous solution with potassium chloride concentration of not less than 0.7 wt % and less than 0.75 wt %) | + (intensity of the same level as potassium chloride aqueous solution with potassium chloride concentration of not less than 0.75 wt % and less than 0.8 wt %) | + (intensity of the same level as potassium chloride aqueous solution with potassium chloride concentration of not less than 0.75 wt % and less than 0.8 wt %) | decreased | suppressed | suppressed | – | – | – | – | – | – | – | –
CC(=O)c1ccco1 [2-acetylfuran] | suppressed | suppressed | +++ (intensity of the same level as potassium chloride aqueous solution with potassium chloride concentration of not less than 0.65 wt % and less than 0.7 wt %) | + (intensity of the same level as potassium chloride aqueous solution with potassium chloride concentration of not less than 0.75 wt % and less than 0.8 wt %) | – | – | decreased | suppressed | suppressed | ++ (intensity of the same level as potassium chloride aqueous solution with potassium chloride concentration of not less than 0.1 wt % and less than 0.15 wt %) | decreased | ++ (intensity of the same level as potassium chloride aqueous solution with potassium chloride concentration of not less than 0.7 wt % and less than 0.75 wt %) | ++ (intensity of the same level as potassium chloride aqueous solution with potassium chloride concentration of not less than 0.7 wt % and less than 0.75 wt %) | high | +++ (intensity of the same level as potassium chloride aqueous solution with potassium chloride concentration of not less than 0.65 wt % and less than 0.7 wt %) | decreased | –
CC1OCCC1=O (stereo not shown) [2-methyltetrahydrofuran-3-one] | suppressed | suppressed | ++ (intensity of the same level as potassium chloride aqueous solution with potassium chloride concentration of not less than 0.7 wt % and less than 0.75 wt %) | + (intensity of the same level as potassium chloride aqueous solution with potassium chloride concentration of not less than 0.75 wt % and less than 0.8 wt %) | – | – | decreased | suppressed | suppressed | + (intensity of the same level as potassium chloride aqueous solution with potassium chloride concentration of not less than 0.15 wt % and less than 0.2 wt %) | decreased | – | ++ (intensity of the same level as potassium chloride aqueous solution with potassium chloride concentration of not less than 0.7 wt % and less than 0.75 wt %) | – | – | – | ++ (intensity of the same level as potassium chloride aqueous solution with potassium chloride concentration of not less than 0.7 wt % and less than 0.75 wt %)
